Laboratory results reported in EPA's ToxValDB 9.5 (doi:10.2903/j.efsa.2005.25r).
Values after ≈ are worked out from the molar mass of the structure shown.

Columns and labels:
Daphnia magna = details: chronic/long-term; duration: 21 days; growth
Hyalella azteca = details: chronic/long-term; duration: 21 days; mortality
Phasianus sp. = details: short-term; duration: 5 days; oral; feed; mortality
Oncorhynchus mykiss = details: chronic/long-term; duration: 28 days; mortality
Cyprinodon variegatus = details: mortality
Coturnix coturnix = details: acute; duration: 5 days; oral; diet; mortality
Apis mellifera = details: acute

Structure (SMILES): CN(C)C(=O)Nc1ccc(Cl)c(Cl)c1 [Diuron]
- NOEC (Daphnia magna): 0.096 mg/L
- LD50 (Rattus norvegicus; acute, mortality): 2000 mg/kg
- NOAEL (Rattus norvegicus; chronic): 80 mg/kg-day
- LOAEL (Rattus norvegicus; chronic, duration: 2 years, F, hematological): 1.7 mg/kg-day
- NOAEL (Rattus norvegicus; chronic, duration: 6 months, hematological): 1.6 mg/kg-day
- NOAEL (Rattus norvegicus; chronic, duration: 6 months, oral, hematological): 0.66 mg/kg-day
- LC50 (Pontoscolex corethrurus; acute, mortality): > 798 mg/kg
- NOEC (Pontoscolex corethrurus; chronic/long-term): 14.4 mg/kg
- NOEC (Hyalella azteca): 0.06 mg/L
- LC50 (Phasianus sp.): > 5000 mg/kg
- NOEC (Oncorhynchus mykiss): 0.41 mg/L
- LC50 (Cyprinodon variegatus; acute, duration: 96 hours): 6.7 µg/mL (≈ 28.7 µM)
- NOEC (Cyprinodon variegatus; chronic/long-term, duration: 32 days): 1.7 mg/L
- LC50 (Coturnix coturnix): > 5000 mg/kg
- LC50 (Colinus virginianus; acute, duration: 5 days, oral, diet, mortality): 346 mg/kg-day
- LD50 (Colinus virginianus; acute, duration: 14 days, oral, diet, mortality): 1100 mg/kg
- NOEC (Colinus virginianus; reproduction developmental): 24.1 mg/kg-day
- LEL (Apis mellifera; dermal): > 100 µg/piece
- LEL (Apis mellifera; oral, unspecified): > 100 µg/piece
